Source: PubChem BioAssay AID1963422 (Molecular Pharmacology Branch, DTP, NCI, 2024)
“And” between values parts separate entries of the source, which are not always exact repeats. Equal entries are not always repeated. Each block holds one compound with its values, some of them ahead of it.

Test system: 463943-066-T-J2-PDC complex spheroid growth
Assay: Anticancer human tumor 463943-066-T-J2-PDC patient-derived colon adenocarcinoma cell line growth inhibition [Asc]
Settings: for viability, T/C: stronger effect = lower value
In short: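 Tumor cells were grown as complex spheroids with human endothelial cells (HUVEC) and human mesenchymal stem cells as stroma. Agents were tested alone and in combination, in half-log steps down from the clinical Cmax, or from 10 microM where Cmax was unknown.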

[1] = curve of first compound, second compound 0.0316 µM
[2] = curve of first compound, second compound 0.1 µM
[3] = curve of first compound, second compound 0.316 µM
[4] = curve of first compound, second compound 1 µM
[5] = second compound 0.0316 µM, first compound 0.0316 µM
[6] = second compound 0.0316 µM, first compound 0.1 µM
[7] = second compound 0.0316 µM, first compound 0.316 µM
[8] = second compound 0.0316 µM, first compound 1 µM
[9] = second compound 0.1 µM, first compound 0.0316 µM
[10] = second compound 0.1 µM, first compound 0.1 µM
[11] = second compound 0.1 µM, first compound 0.316 µM
[12] = second compound 0.1 µM, first compound 1 µM
[13] = second compound 0.316 µM, first compound 0.0316 µM
[14] = second compound 0.316 µM, first compound 0.1 µM
[15] = second compound 0.316 µM, first compound 0.316 µM
[16] = second compound 0.316 µM, first compound 1 µM
[17] = second compound 1 µM, first compound 0.0316 µM
[18] = second compound 1 µM, first compound 0.1 µM
[19] = second compound 1 µM, first compound 0.316 µM
[20] = second compound 1 µM, first compound 1 µM
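Further: compound exposure lasted 7 days.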
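Wherever viability, T/C is given: 100% = DMSO vehicle control wells.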

- IC50 (curve of first compound, second compound 0.00949 µM): 410 nM
- IC50 (curve of first compound, second compound 0.03 µM): 271 nM
- IC50 (curve of first compound, second compound 0.0949 µM): 231 nM
- IC50 (curve of first compound, second compound 0.3 µM): 71.1 nM
- IC50 (curve of first compound, second compound 0.949 µM): 44.7 nM
- IC50 (curve of first compound, second compound 3 µM): 60.8 nM
Structure (SMILES): COc1c(OCCCN2CCOCC2)ccc2c3n(c(=NC(=O)c4cnc(N)nc4)nc12)CCN3 + CCN1C(C(=O)NC23CCC(C(=O)O)(CC2)CC3)C(c2cccc(Cl)c2F)C2(C(=O)Nc3cc(Cl)ccc32)C12CCCCC2
- viability, T/C (second compound 0.00949 µM, first compound 0.00316 µM): 89.5%
- viability, T/C (second compound 0.00949 µM, first compound 0.01 µM): 82.9%
- viability, T/C (second compound 0.00949 µM, first compound 0.0316 µM): 74%
- viability, T/C (second compound 0.00949 µM, first compound 0.1 µM): 69.2%
- viability, T/C (second compound 0.00949 µM, first compound 0.316 µM): 51.2%
- viability, T/C (second compound 0.00949 µM, first compound 1 µM): 39.4%
- viability, T/C (second compound 0.03 µM, first compound 0.00316 µM): 95.3%
- viability, T/C (second compound 0.03 µM, first compound 0.01 µM): 88.5%
- viability, T/C (second compound 0.03 µM, first compound 0.0316 µM): 71.5%
- viability, T/C (second compound 0.03 µM, first compound 0.1 µM): 61.2%
- viability, T/C (second compound 0.03 µM, first compound 0.316 µM): 50.3%
- viability, T/C (second compound 0.03 µM, first compound 1 µM): 33.7%
- viability, T/C (second compound 0.0949 µM, first compound 0.00316 µM): 87.3%
- viability, T/C (second compound 0.0949 µM, first compound 0.01 µM): 84.1%
- viability, T/C (second compound 0.0949 µM, first compound 0.0316 µM): 71.4%
- viability, T/C (second compound 0.0949 µM, first compound 0.1 µM): 59.3%
- viability, T/C (second compound 0.0949 µM, first compound 0.316 µM): 47.4%
- viability, T/C (second compound 0.0949 µM, first compound 1 µM): 33.6%
- viability, T/C (second compound 0.3 µM, first compound 0.00316 µM): 73%
- viability, T/C (second compound 0.3 µM, first compound 0.01 µM): 72.5%
- viability, T/C (second compound 0.3 µM, first compound 0.0316 µM): 61.9%
- viability, T/C (second compound 0.3 µM, first compound 0.1 µM): 44.4%
- viability, T/C (second compound 0.3 µM, first compound 0.316 µM): 37.1%
- viability, T/C (second compound 0.3 µM, first compound 1 µM): 32%
- viability, T/C (second compound 0.949 µM, first compound 0.00316 µM): 68.5%
- viability, T/C (second compound 0.949 µM, first compound 0.01 µM): 62.5%
- viability, T/C (second compound 0.949 µM, first compound 0.0316 µM): 53.4%
- viability, T/C (second compound 0.949 µM, first compound 0.1 µM): 42.2%
- viability, T/C (second compound 0.949 µM, first compound 0.316 µM): 35.1%
- viability, T/C (second compound 0.949 µM, first compound 1 µM): 30.4%
- viability, T/C (second compound 3 µM, first compound 0.00316 µM): 65.3%
- viability, T/C (second compound 3 µM, first compound 0.01 µM): 64.4%
- viability, T/C (second compound 3 µM, first compound 0.0316 µM): 53.7%
- viability, T/C (second compound 3 µM, first compound 0.1 µM): 45.4%
- viability, T/C (second compound 3 µM, first compound 0.316 µM): 39.1%
- viability, T/C (second compound 3 µM, first compound 1 µM): 29.8%

- IC50 (curve of compound): > 10000 nM
Structure (SMILES): C#Cc1c(F)ccc2cc(O)cc(-c3ncc4c(N5CC6CCC(C5)N6)nc(OCC56CCCN5CC(F)C6)nc4c3F)c12 (stereo not drawn)
- viability, T/C (compound 0.0316 µM): 103% and 101% and 90.9%
- viability, T/C (compound 0.1 µM): 88.8% and 94.5% and 88.5%
- viability, T/C (compound 0.316 µM): 100% and 104% and 103%
- viability, T/C (compound 1 µM): 109% and 104% and 115%
- viability, T/C (compound 3.16 µM): 105% and 100% (2×)
- viability, T/C (compound 10 µM): 96.9% and 95.9% and 104%

- IC50 (curve of first compound, second compound 0.00316 µM): > 10000 nM
- IC50 (curve of first compound, second compound 0.01 µM): > 10000 nM
- IC50 [1]: > 10000 nM
- IC50 [2]: > 10000 nM
- IC50 [3]: > 10000 nM
- IC50 [4]: > 10000 nM
Structure (SMILES): O=C(c1cc(Cc2n[nH]c(=O)c3ccccc23)ccc1F)N1CCN(C(=O)C2CC2)CC1 + CNC(C)C(=O)NC1CN(S(=O)(=O)c2cccc(S(=O)(=O)N3CCC4CCC(C(=O)NC(c5ccccc5)c5ccccc5)N4C(=O)C(NC(=O)C(C)NC)C3)c2)CCC2CCC(C(=O)NC(c3ccccc3)c3ccccc3)N2C1=O
- viability, T/C (second compound 0.00316 µM, first compound 0.0316 µM): 91.4%
- viability, T/C (second compound 0.00316 µM, first compound 0.1 µM): 95.9%
- viability, T/C (second compound 0.00316 µM, first compound 0.316 µM): 96.9%
- viability, T/C (second compound 0.00316 µM, first compound 1 µM): 103%
- viability, T/C (second compound 0.00316 µM, first compound 3.16 µM): 89.4%
- viability, T/C (second compound 0.00316 µM, first compound 10 µM): 86.2%
- viability, T/C (second compound 0.01 µM, first compound 0.0316 µM): 94.1%
- viability, T/C (second compound 0.01 µM, first compound 0.1 µM): 87.5%
- viability, T/C (second compound 0.01 µM, first compound 0.316 µM): 91.9%
- viability, T/C (second compound 0.01 µM, first compound 1 µM): 97.5%
- viability, T/C (second compound 0.01 µM, first compound 3.16 µM): 110%
- viability, T/C (second compound 0.01 µM, first compound 10 µM): 87.6%
- viability, T/C [5]: 98.1%
- viability, T/C [6]: 100%
- viability, T/C [7]: 97.4%
- viability, T/C [8]: 99.2%
- viability, T/C (second compound 0.0316 µM, first compound 3.16 µM): 92.8%
- viability, T/C (second compound 0.0316 µM, first compound 10 µM): 82.9%
- viability, T/C [9]: 106%
- viability, T/C [10]: 93.3%
- viability, T/C [11]: 90.6%
- viability, T/C [12]: 95.8%
- viability, T/C (second compound 0.1 µM, first compound 3.16 µM): 91.3%
- viability, T/C (second compound 0.1 µM, first compound 10 µM): 86.2%
- viability, T/C [13]: 90.9%
- viability, T/C [14]: 91.8%
- viability, T/C [15]: 85.1%
- viability, T/C [16]: 98.1%
- viability, T/C (second compound 0.316 µM, first compound 3.16 µM): 87.2%
- viability, T/C (second compound 0.316 µM, first compound 10 µM): 91.3%
- viability, T/C [17]: 90.5%
- viability, T/C [18]: 95%
- viability, T/C [19]: 84.4%
- viability, T/C [20]: 89.7%
- viability, T/C (second compound 1 µM, first compound 3.16 µM): 85.9%
- viability, T/C (second compound 1 µM, first compound 10 µM): 80.9%

- IC50 [1]: 442 nM
- IC50 [2]: 406 nM
- IC50 [3]: 215 nM
- IC50 [4]: 157 nM
- IC50 (curve of first compound, second compound 3.16 µM): 27 nM
- IC50 (curve of first compound, second compound 10 µM): < 3.16 nM
Structure (SMILES): COc1c(OCCCN2CCOCC2)ccc2c3n(c(=NC(=O)c4cnc(N)nc4)nc12)CCN3 + Cc1c(S(C)(=O)=O)c(-c2cc(F)cc(N3CCN(c4ccc(NS(=O)(=O)c5ccc(NC(CCN6CCC(C(=O)OCCCP(=O)(O)O)CC6)CSc6ccccc6)c(S(=O)(=O)C(F)(F)F)c5)cc4)CC3)c2)c(-c2ccc(Cl)cc2)n1C(C)C
- viability, T/C (second compound 0.0316 µM, first compound 0.00316 µM): 95.3%
- viability, T/C (second compound 0.0316 µM, first compound 0.01 µM): 91.8%
- viability, T/C [5]: 83.6%
- viability, T/C [6]: 64.6%
- viability, T/C [7]: 57.8%
- viability, T/C [8]: 38.4%
- viability, T/C (second compound 0.1 µM, first compound 0.00316 µM): 94.4%
- viability, T/C (second compound 0.1 µM, first compound 0.01 µM): 86%
- viability, T/C [9]: 79.3%
- viability, T/C [10]: 65.9%
- viability, T/C [11]: 55.7%
- viability, T/C [12]: 36.2%
- viability, T/C (second compound 0.316 µM, first compound 0.00316 µM): 87.7%
- viability, T/C (second compound 0.316 µM, first compound 0.01 µM): 92.6%
- viability, T/C [13]: 69%
- viability, T/C [14]: 57.5%
- viability, T/C [15]: 49.7%
- viability, T/C [16]: 34.1%
- viability, T/C (second compound 1 µM, first compound 0.00316 µM): 78.9%
- viability, T/C (second compound 1 µM, first compound 0.01 µM): 74.5%
- viability, T/C [17]: 61.8%
- viability, T/C [18]: 51.6%
- viability, T/C [19]: 49.5%
- viability, T/C [20]: 27.1%
- viability, T/C (second compound 3.16 µM, first compound 0.00316 µM): 63.6%
- viability, T/C (second compound 3.16 µM, first compound 0.01 µM): 58.8%
- viability, T/C (second compound 3.16 µM, first compound 0.0316 µM): 46%
- viability, T/C (second compound 3.16 µM, first compound 0.1 µM): 41%
- viability, T/C (second compound 3.16 µM, first compound 0.316 µM): 33.6%
- viability, T/C (second compound 3.16 µM, first compound 1 µM): 21.5%
- viability, T/C (second compound 10 µM, first compound 0.00316 µM): 48.1%
- viability, T/C (second compound 10 µM, first compound 0.01 µM): 44.7%
- viability, T/C (second compound 10 µM, first compound 0.0316 µM): 41.2%
- viability, T/C (second compound 10 µM, first compound 0.1 µM): 35.6%
- viability, T/C (second compound 10 µM, first compound 0.316 µM): 35.6%
- viability, T/C (second compound 10 µM, first compound 1 µM): 21.4%
